Values quoted from earlier work, collected in patent US9827309B2, “Treating cancer with a combination of a PD-1 antagonist and dinaciclib” (Merck Sharp & Dohme Corp., priority 2013, dated 2017).

Details: clinical trials; cited from earlier work

CCc1cnn2c(NCc3ccc[n+]([O-])c3)cc(N3CCCC[C@H]3CCO)nc12 [Dinaciclib, 1-[3-ethyl-7-[[(1-oxido-3-pyridinyl)methyl]amino]pyrazolo[1,5-a]pyrimidin-5-yl]-2(S)-piperidineethanol]
most common dose-limiting toxicity: neutropenia
